Measured values from ChEMBL document CHEMBL5696439 (Cancer Res, 2010).
Activity calls are given as the source filed them. The calls are words filed in the database; no cut-off is given here.

Assays:
[1] = test system: Tyrosine-protein kinase ABL1 (Homo sapiens), P00519 [E255K]; test: Inhibition of recombinant human full-length His-tagged ABL1 E255K mutant expressed in insect cells at 2 uM using Tyr 02 as substrate measured after 1 hr by Z'-LYTE assay relative to control; conditions: Insect cell
[2] = target: Calcium/calmodulin-dependent protein kinase type II subunit alpha (Homo sapiens) (UniProt Q9UQM7); test: Inhibition of recombinant human full-length His-tagged CAMK2A expressed in insect cells at 2 uM using Ser/Thr 04 as substrate measured after 1 hr by Z'-LYTE assay relative to control; conditions: Insect cell
[3] = target: Calcium/calmodulin-dependent protein kinase type IV (Homo sapiens) (UniProt Q16566); test: Inhibition of recombinant human full-length GST-tagged CAMK4 expressed in E. coli at 2 uM using Ser/Thr 13 as substrate measured after 1 hr by Z'-LYTE assay relative to control
Chain of Calcium/calmodulin-dependent protein kinase type IV (Homo sapiens) (Q16566 whole entry): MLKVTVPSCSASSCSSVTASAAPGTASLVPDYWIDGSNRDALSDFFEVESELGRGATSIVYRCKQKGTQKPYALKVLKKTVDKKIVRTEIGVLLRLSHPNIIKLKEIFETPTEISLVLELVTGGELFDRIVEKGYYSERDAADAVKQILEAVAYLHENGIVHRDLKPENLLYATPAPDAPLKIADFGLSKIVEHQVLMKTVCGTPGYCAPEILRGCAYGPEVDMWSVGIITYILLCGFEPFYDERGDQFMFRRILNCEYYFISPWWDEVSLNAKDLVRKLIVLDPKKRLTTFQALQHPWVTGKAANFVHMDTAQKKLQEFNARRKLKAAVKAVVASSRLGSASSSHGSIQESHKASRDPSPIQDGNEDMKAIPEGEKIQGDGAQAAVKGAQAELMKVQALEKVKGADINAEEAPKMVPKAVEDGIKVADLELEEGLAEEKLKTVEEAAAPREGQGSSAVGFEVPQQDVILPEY

[4] = target: Cyclin-dependent kinase 1/cyclin B1 (Homo sapiens) (UniProt P06493+P14635); test: Inhibition of recombinant human full-length His-tagged CDK1/cyclin B expressed in insect cells at 2 uM using Ser/Thr 18 as substrate measured after 1 hr by Z'-LYTE assay relative to control; conditions: Insect cell
[5] = target: Macrophage colony-stimulating factor 1 receptor (Homo sapiens) (UniProt P07333); test: Inhibition of recombinant human His-tagged CSF1R (538-910 residues) expressed in baculovirus expression system at 2 uM using Tyr 01 as substrate measured after 1 hr by Z'-LYTE assay relative to control
[6] = target: Serine/threonine-protein kinase DCLK2 (Homo sapiens) (UniProt Q8N568); test: Inhibition of recombinant human full-length GST-tagged DCAMKL2 expressed in baculovirus expression system at 2 uM using Ser/Thr 17 as substrate measured after 1 hr by Z'-LYTE assay relative to control
Chain of Serine/threonine-protein kinase DCLK2 (Homo sapiens) (Q8N568 whole entry, the tested form may be a part): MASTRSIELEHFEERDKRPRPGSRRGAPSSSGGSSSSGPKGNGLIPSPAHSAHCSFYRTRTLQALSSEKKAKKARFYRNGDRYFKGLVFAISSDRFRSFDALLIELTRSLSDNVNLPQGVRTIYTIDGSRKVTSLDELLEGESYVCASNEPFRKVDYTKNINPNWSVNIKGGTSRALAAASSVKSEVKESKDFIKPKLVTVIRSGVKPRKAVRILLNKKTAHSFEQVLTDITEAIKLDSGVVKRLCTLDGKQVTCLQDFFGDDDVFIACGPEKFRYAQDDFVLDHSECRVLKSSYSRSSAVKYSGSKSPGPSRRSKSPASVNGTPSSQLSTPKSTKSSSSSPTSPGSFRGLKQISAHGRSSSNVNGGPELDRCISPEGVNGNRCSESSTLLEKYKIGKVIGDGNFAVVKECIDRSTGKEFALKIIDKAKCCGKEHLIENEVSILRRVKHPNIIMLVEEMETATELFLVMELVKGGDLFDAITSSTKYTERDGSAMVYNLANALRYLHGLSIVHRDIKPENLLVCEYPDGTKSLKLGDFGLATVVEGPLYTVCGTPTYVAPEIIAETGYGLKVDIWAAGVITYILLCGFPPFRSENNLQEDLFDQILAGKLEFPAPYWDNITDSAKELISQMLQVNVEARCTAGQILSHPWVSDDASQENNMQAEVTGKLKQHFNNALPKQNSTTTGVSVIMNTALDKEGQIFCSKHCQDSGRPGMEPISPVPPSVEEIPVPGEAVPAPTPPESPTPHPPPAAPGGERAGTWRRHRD

[7] = target: Ephrin type-A receptor 1 (Homo sapiens) (UniProt P21709); test: Inhibition of recombinant human GST-tagged EPHA1 (568-976 residues) expressed in insect cells at 2 uM using Tyr 02 as substrate measured after 1 hr by Z'-LYTE assay relative to control; conditions: Insect cell
[8] = target: Ephrin type-B receptor 1 (Homo sapiens) (UniProt P54762); test: Inhibition of recombinant human GST-tagged EPHB1 (613-881 residues) expressed in insect cells at 2 uM using Tyr 02 as substrate measured after 1 hr by Z'-LYTE assay relative to control; conditions: Insect cell
[9] = target: G protein-coupled receptor kinase 5 (Homo sapiens) (UniProt P34947); test: Inhibition of recombinant human full-length GST-tagged GRK5 expressed in insect cells at 2 uM using Ser/Thr 16 as substrate measured after 1 hr by Z'-LYTE assay relative to control; conditions: Insect cell
[10] = target: Glycogen synthase kinase-3 alpha (Homo sapiens) (UniProt P49840); test: Inhibition of recombinant human full-length GST-tagged GSK3A expressed in insect cells at 2 uM using Ser/Thr 09 as substrate measured after 1 hr by Z'-LYTE assay relative to control; conditions: Insect cell
Chain of Glycogen synthase kinase-3 alpha (Homo sapiens) (P49840 2-483 limits assumed): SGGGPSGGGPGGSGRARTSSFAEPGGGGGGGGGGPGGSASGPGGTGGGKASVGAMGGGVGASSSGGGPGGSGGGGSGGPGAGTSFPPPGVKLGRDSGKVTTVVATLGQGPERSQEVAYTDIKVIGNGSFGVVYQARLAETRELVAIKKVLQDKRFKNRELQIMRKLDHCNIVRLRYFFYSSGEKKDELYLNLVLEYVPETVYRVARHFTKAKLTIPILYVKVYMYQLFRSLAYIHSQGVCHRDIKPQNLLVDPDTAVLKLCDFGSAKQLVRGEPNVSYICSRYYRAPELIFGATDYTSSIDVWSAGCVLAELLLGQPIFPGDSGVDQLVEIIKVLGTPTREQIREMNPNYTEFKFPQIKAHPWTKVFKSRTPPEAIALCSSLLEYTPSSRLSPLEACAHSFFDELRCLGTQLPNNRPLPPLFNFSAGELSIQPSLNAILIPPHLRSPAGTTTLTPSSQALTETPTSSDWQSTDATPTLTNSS

[11] = target: Insulin receptor (Homo sapiens) (UniProt P06213); test: Inhibition of recombinant human GST-tagged INSR (1011-1382 residues) expressed in insect cells at 2 uM using Tyr 01 as substrate measured after 1 hr by Z'-LYTE assay relative to control; conditions: Insect cell
Chain of Insulin receptor (Homo sapiens) (P06213 28-758 limits assumed): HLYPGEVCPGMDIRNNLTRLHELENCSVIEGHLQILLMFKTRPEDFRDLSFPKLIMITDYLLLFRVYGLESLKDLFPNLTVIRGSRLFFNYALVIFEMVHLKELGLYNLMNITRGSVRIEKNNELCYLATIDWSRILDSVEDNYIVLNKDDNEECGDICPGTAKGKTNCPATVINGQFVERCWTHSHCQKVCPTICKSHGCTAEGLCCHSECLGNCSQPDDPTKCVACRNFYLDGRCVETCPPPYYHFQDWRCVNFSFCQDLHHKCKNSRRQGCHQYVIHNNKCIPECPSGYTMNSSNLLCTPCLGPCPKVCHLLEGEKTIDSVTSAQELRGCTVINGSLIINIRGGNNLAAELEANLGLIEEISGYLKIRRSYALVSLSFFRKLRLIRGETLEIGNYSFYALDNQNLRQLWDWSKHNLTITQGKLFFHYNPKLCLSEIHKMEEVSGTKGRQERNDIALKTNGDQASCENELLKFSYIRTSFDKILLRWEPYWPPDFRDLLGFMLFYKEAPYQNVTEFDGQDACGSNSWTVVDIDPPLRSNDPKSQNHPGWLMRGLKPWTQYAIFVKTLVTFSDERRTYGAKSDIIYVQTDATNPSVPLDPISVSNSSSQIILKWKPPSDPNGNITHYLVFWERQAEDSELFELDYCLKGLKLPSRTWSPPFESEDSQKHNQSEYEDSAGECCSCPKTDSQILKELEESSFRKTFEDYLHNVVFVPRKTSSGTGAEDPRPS
Chain of Insulin receptor (Homo sapiens) (P06213 763-1382 limits assumed): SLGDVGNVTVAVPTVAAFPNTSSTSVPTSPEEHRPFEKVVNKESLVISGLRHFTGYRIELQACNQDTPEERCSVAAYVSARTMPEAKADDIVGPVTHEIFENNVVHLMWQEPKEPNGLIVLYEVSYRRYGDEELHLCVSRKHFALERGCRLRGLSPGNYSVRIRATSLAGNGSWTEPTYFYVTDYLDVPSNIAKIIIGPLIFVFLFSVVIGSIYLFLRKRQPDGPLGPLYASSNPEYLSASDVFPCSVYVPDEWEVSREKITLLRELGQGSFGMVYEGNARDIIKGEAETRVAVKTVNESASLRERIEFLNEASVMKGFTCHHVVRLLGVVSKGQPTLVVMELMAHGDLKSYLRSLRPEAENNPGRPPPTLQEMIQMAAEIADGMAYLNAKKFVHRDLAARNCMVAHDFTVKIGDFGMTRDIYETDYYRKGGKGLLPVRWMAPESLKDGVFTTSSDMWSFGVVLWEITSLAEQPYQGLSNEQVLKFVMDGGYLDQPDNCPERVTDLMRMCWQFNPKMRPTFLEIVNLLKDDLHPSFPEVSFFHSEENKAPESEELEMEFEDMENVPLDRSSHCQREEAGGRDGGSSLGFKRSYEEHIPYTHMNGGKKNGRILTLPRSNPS

[12] = target: Mitogen-activated protein kinase 9 (Homo sapiens) (UniProt P45984); test: Inhibition of recombinant human full length His-tagged MAPK9 expressed in baculovirus expression system at 2 uM using Ser/Thr 04 as substrate measured after 1 hr by Z'-LYTE assay relative to control
[13] = target: MAP kinase-activated protein kinase 2 (Homo sapiens) (UniProt P49137); test: Inhibition of recombinant human full length His-tagged MAPKAPK2 expressed in E. coli at 2 uM using Ser/Thr 04 as substrate measured after 1 hr by Z'-LYTE assay relative to control
[14] = target: MAP kinase-activated protein kinase 5 (Homo sapiens) (UniProt Q8IW41); test: Inhibition of recombinant human full length His-tagged MAPKAPK5 expressed in baculovirus expression system at 2 uM using Ser/Thr 04 as substrate measured after 1 hr by Z'-LYTE assay relative to control
Chain of MAP kinase-activated protein kinase 5 (Homo sapiens) (Q8IW41 whole entry): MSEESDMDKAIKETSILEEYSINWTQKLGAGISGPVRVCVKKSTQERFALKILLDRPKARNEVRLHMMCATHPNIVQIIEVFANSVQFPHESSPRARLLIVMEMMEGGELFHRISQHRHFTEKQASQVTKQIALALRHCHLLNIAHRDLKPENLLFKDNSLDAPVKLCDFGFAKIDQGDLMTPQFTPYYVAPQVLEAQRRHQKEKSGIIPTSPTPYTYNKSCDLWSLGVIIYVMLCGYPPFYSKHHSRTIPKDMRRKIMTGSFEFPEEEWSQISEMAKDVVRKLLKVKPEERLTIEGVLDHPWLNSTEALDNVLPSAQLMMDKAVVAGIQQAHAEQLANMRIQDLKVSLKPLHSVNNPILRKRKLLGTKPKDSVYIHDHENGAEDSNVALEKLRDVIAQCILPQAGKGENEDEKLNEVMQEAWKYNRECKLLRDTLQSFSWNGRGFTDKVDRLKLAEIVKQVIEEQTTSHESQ

[15] = target: Serine/threonine-protein kinase PAK 2 (Homo sapiens) (UniProt Q13177); test: Inhibition of recombinant human full length GST-tagged PAK2 expressed in insect cells at 2 uM using Ser/Thr 20 as substrate measured after 1 hr by Z'-LYTE assay relative to control; conditions: Insect cell
Chain of Serine/threonine-protein kinase PAK 2 (Homo sapiens) (Q13177 whole entry): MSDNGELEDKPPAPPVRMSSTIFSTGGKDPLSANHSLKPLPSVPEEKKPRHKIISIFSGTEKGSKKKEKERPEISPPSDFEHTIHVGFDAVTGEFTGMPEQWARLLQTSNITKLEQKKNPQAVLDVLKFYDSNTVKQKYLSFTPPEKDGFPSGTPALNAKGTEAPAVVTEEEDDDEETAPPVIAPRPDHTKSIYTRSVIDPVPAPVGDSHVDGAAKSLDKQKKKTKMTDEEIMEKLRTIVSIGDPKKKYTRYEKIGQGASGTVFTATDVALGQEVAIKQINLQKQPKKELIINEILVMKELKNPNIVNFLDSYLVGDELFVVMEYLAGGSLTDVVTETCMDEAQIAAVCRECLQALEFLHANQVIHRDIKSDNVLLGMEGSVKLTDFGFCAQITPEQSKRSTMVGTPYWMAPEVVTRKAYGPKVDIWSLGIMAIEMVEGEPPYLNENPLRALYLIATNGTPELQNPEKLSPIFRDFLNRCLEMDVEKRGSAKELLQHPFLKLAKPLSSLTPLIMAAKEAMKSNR

[16] = target: Protein kinase C beta type (Homo sapiens) (UniProt P05771); test: Inhibition of recombinant human full length GST-tagged PRKCB2 expressed in insect cells at 2 uM using Ser/Thr 07 as substrate measured after 1 hr by Z'-LYTE assay relative to control; conditions: Insect cell
[17] = target: SRSF protein kinase 2 (Homo sapiens) (UniProt P78362); test: Inhibition of recombinant human full length GST-tagged SRPK2 expressed in insect cells at 2 uM using Ser/Thr 07 as substrate measured after 1 hr by Z'-LYTE assay relative to control; conditions: Insect cell
Chain of SRSF protein kinase 2 (Homo sapiens) (P78362 whole entry, looked up): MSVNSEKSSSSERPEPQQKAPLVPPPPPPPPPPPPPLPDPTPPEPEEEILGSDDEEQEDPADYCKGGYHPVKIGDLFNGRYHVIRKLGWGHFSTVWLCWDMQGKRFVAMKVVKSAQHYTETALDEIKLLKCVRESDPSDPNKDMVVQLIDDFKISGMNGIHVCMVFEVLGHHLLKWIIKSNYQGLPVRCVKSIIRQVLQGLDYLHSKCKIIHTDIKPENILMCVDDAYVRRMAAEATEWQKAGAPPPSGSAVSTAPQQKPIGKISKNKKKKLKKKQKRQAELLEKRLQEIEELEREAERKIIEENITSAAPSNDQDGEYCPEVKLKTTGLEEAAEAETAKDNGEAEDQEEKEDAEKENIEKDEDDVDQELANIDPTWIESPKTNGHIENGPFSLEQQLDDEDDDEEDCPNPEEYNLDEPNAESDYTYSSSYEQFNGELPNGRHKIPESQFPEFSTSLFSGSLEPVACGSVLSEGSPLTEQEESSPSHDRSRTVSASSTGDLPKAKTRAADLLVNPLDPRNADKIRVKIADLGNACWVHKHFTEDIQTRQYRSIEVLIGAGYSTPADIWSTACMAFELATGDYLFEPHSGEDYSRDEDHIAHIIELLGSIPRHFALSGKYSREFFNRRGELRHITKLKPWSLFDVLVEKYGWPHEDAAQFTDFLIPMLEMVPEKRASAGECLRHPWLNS

[18] = test system: MDA-MB-231; test: Antiproliferative activity against human MDA-MB-231 cells assessed as cell growth inhibition incubated for 24 hrs by MTS assay; type: functional, cell-based; conditions: MDA-MB-231, 24 h
[19] = test system: HCT-116; test: Induction of apoptosis in human HCT-116 cells assessed as increase in G1 phase at 1 micromol/L incubated for 24 hrs by FACS analysis; type: functional, cell-based; conditions: dose 1.0 µmol/L
[20] = test system: MDA-MB-468; test: Induction of apoptosis in human MDA-MB-468 cells assessed as reduction in S phase at 1 micromol/L incubated for 24 hrs by FACS analysis; type: functional, cell-based; conditions: dose 1.0 µmol/L
[21] = test system: MDA-MB-361; test: Inhibition of protein synthesis in human MDA-MB-361 cells at 0.3 micromol/L incubated for 3 hrs by [3H] methionine incorporation based scintillation counter analysis relative to control; type: functional; conditions: MDA-MB-361, 3 h, dose 0.3 µmol/L
[22] = test system: MDA-MB-361; test: Antitumor activity against human MDA-MB-361 cells assessed as block the accumulation of HIF-2alpha in low oxygen at 0.3 micromol/L incubated for 24 hrs by immunoblot analysis; type: functional, cell-based; conditions: dose 0.3 µmol/L
[23] = test system: PC3MM2; test: Antitumor activity against human PC3MM2 cells xenografted in female nude mouse model assessed as suppression in P-AKT at S473 level at 50 mg/kg, iv administered once a week and measured at least 8 hrs by immunoblot analysis; type: functional, organism-based
[24] = test system: A549; test: Antitumor activity against human A549 cells xenografted in female nude mouse model assessed as suppression in tumor growth at 10 mg/kg, po qd administered as 5 days on/2 days off regimen for 4 cycles; type: functional, organism-based; conditions: time 28.0 day
[25] = target: T1, mTORC2 (Homo sapiens) (UniProt P42345+Q6R327+Q9BVC4+Q9BPZ7); conditions: PC3MM2, dose 0.1-1 µM, time 6.0 hrs
[26] = target: T1, mTORC2 (Homo sapiens); conditions: PC3MM2, dose 0.1-1 µM, time 6.0 hrs; remark: listed apart in the source

For `CNC(=O)Nc1ccc(-c2nc(N3CC4CCC(C3)O4)c3cnn(C4CCC5(CC4)OCCO5)c3n2)cc1`, the inhibition [1] was 5%, the inhibition [2] was 0% and the inhibition [3] was -1%. It also gave an inhibition [4] of 6%, an inhibition [5] of 7% and an inhibition [6] of 2%. The inhibition [7] was 3%, the inhibition [8] was 2% and the inhibition [9] was -4%. The inhibition [10] was -1%, the inhibition [11] was 4% and the inhibition [12] was 11%. The inhibition [13] was 4%, the inhibition [14] was 5% and the inhibition [15] was 15%. For the same molecule, the inhibition [16] was 9%, the inhibition [17] was 1% and the IC50 [18] was 60 nM. The Activity [19] was “Active”, the Activity [20] was “Active” and the inhibition at 0.3 µM [21] was roughly 50%. The Activity [22] was “Active”, the Activity [23] was “Active” and the Activity [24] was “Active”. The inhibition [25] was “Active” and the inhibition [26] was “inactive”.
